Reference: US7226783B1, “Vanillin production” (David Michael & Co., Inc., priority 1997, dated 2007)

Columns and labels:
[1] = system: alcohol dehydrogenase from Vanilla planifolia embryo culture (vanillyl alcohol dehydrogenase, VAD); assay: Substrate specificity of vanillyl alcohol dehydrogenase (VAD); assay type: biochemical; settings: for Activity with the compound as substrate, NADH: cofactor NADH; for Activity with the compound as substrate, NADPH: cofactor NADPH
Protocol: We have purified and characterized the activity of VAD that catalyze the reduction of vanillin to vanillyl alcohol. The enzyme was identified as an NADH or NADPH-dependent alcohol dehydrogenase. The purification protocol was as set forth below.
Crude enzyme extract: Tissue was homogenized in 0.05 M actetate-Na buffer pH 4.0 (in proportion, 1 g of the tissue and 5 ml of the buffer) in an ice bath, using Polytrone homogenizer, at 20,000 revolutions of the blade per min. The homogenate was centrifuged at 13000 g for 15 min at 4° C. and the supernatant served as the crude enzyme source.
Ammonium sulfate fractionation and molecular sieving: Crude enzyme extract (100 ml) was supplied with ammonium sulfate in an ice bath up to 60% of saturation (44.4 g of Ammonium sulphate per 100 ml). The precipitate was centrifuged and discarded. The supernatant was supplied with ammonium sulfate up to 90% of saturation (total 64.6 g per 100 ml of crude extract). The precipitate was collected (10 min centrifugation at 10,000 g), dissolved in 7 ml of extraction buffer and subjected to molecular sieving at Sephacryl S-300 High Load Column (LKB Pharmacia) 2.6×60 cm, in 0.1 M pH 4.0 acetate-Na buffer. The flow rate was adjusted to 1 ml/min and 5 ml fractions were collected. The protein elution profile was monitored at 280 nm. Five fractions (of a total of 50) containing dehydrogenase activity (130–155 ml of the column eluate) were collected.
The column was developed with 0.5 M Tris/HCL buffer pH 7.4 in 0.0–1.0 M NaCl gradient (total gradient volume—70 ml) and 2.5 ml fractions were collected. Vanillyl alcohol dehydrogenase was released from the column between 0.3–0.4 M NaCl. Fractions containing VAD activity were dialysed overnight against 0.05 M caetate-Na buffer pH 4.0 and concentrated up to 50 times using Minicon concentrating filters (Amicon). […]

Vanilla embryo culture = assay: Feeding vanilla embryo culture with vanillin precursors, HPLC analysis of metabolites; assay type: cell-based, Vanilla planifolia
From the text: We derived a scheme for the vanillin biosynthetic pathway by analysis of metabolites in cultured embryos and by experiments with feeding of precursors and intermediates. This scheme is shown in FIG. 1 and the experiments are described below.
(§1) Embryo cultures of Vanilla planifolia were established as described in Example 1. The procedures used to extract phenolics from the cultured embryo cells and to analyze the extracts by high pressure liquid chromatography (HPLC) were as described generally by Havkin-Frenkel et al., Plant Cell, Tissue and Organ Culture 45: 133–136 (1996).
(§2) In the extraction procedure, 3 ml of 0.05 M sodium acetate buffer, pH 5.5, was added to about 1 gram of fresh culture. Samples were placed in boiling water for three minutes, then chilled. The cells were next homogenized in a Polytron blender for 1 minute at medium speed. A β-glucosidase solution was added to the homogenized cells to give a final concentration of 0.2%. Each sample was then incubated at 37° C. for 5 hr. Next, 17 ml of 95% ethanol was added, after which incubation at 37° C. was continued for an additional 24 hrs. The extract was then filtered and the ethanol evaporated. The filtrate was extracted twice using ethyl acetate, then extracted twice with ethyl acetate acidified to pH 3 with HCl. The extracts were combined and the ethyl acetate evaporated. The residue was dissolved in 1 ml of acidified methanol and filtered with a 0.45 μm syringe filter for HPLC analysis.
Extractions of metabolites from culture medium was similar to the cell extraction protocol. Five ml of spent medium was incubated in a β-glucosidase solution at 37° C. for 24 hrs. The medium was then extracted with ethyl acetate and the organic portions combined and evaporated, as for the cell extracts.
(§3) Metabolite levels were measured with a Hewlett Packard 1090L or a Waters HPLC with a UV detector at 280 nm. The Waters HPLC was also equipped with a diode array detector to confirm the identities of the various intermediates, and the identities of the various intermediates were further confirmed by mass spectrometry. The column was a Supelco C-18 DB column of dimensions 250 mm×4.6 mm and a particle size of 5 μm. The mobile phase contained methanol and water, each of which was acidified with 1.25% acetic acid. The flow rate was 1 ml/min, with a solvent gradient as follows: […]
Results of selected experiments in which precursors or elicitors were added to vanilla cultures are set forth below. These experiments were performed in accordance with the procedures set forth in Examples 1–4.

[2] = system: p-hydroxybenzaldehyde synthase; assay: Substrate specificity of p-hydroxybenzaldehyde synthase (chain shortening enzyme), crude enzyme; assay type: biochemical, Vanilla planifolia; settings: for Result: conversion of the compound as substrate to the expected chain-shortened product: crude enzyme, HPLC detection of product
Protocol: Sterile plant material (2 g) 2–3 weeks after subculture, was homogenized in a cooled Potter glass homogenizer with 4 ml of 0.1 M HEPES buffer, pH 8.0, containing 10 mM DTT. The homogenate was next centrifuged at 4° C. at 15.000× g for 15 min. Resultant supernatant (4 ml) was filtered through Sephadex G-25 column (void volume 3–4 ml.) Equilibrated with Tris/HCL buffer pH7, containing 10 mM DTT. The column was washed with the same buffer and 2 ml fraction following the void volume was collected. This fraction was used as the crude enzyme source.
The p-HO-aldehyde synthase activity was determined in the following mixture:
crude enzyme extract: 10 μl
(substrate=1.8 mM p-coumarate in 0.1 M Tris/HCl, pH 8.0 with 10 mM DTT)
The mixture was incubated for 10–60 min (for longer incubation times, the activity was not proportional with time) at 35° C. and next, the reaction stopped by addition of 200 μl of acidified methanol (10% acetic acid in methanol). The slurry was passed through 0.45 μm filter and the filtrate (50 μl) injected into HPLC Bio-sil 18 HL 90-5 column (Reversed phase, 250 mm×4.6 mm). […] The eluate was monitored at 280 nm and retention time of the reaction product was compared to retention time of the standard compounds (benzaldehyde, p-HO-benzaldehyde, vanillin, protocatechuic aldehyde, p-coumaric acid, caffeic acid, ferulic acid, coniferyl aldehyde). The results were quantified using LKB Bromma 2221 Integrator.
As a potential substrates for chain shortening enzyme the following compounds were tested: […]

[3] = system: Vanilla planifolia Embryo Culture; assay: Malic acid elicitation of embryo culture, HPLC analysis of intermediary metabolites; assay type: cell-based
Protocol: as §1, §2, §3
Malic acid in concentrations of 0.1 to 3% was applied as a disodium salt to the growing medium. The culture was maintained for 1 to 15 days, then was extracted as described in Example 2.
Cultures were grown in medium containing 3% malic acid by weight, for 7 days.

[4] = 3% malic acid by weight in medium, 7 days

CCOc1cc(C=O)ccc1O [4-hydroxy-3-ethoxybenzaldehyde]
Activity with the compound as substrate, NADH [1]: 0.42 nmoles · gfwt^−1 · min^−1

CCOc1cc(C=O)ccc1OC [4-methoxy-3-ethoxybenzaldehyde]
Activity with the compound as substrate, NADH [1]: 0.00 nmoles · gfwt^−1 · min^−1

COc1ccc(C=O)cc1O [4methoxy-3-hydroxybenzaldehyde]
Activity with the compound as substrate, NADH [1]: 0.00 nmoles · gfwt^−1 · min^−1 | Activity with the compound as substrate, NADPH [1]: 0.00 nmoles · gfwt^−1 · min^−1

CC=O [Acetaldehyde]
substrate preference of VAD [1]: lower | Activity with the compound as substrate, NADH [1]: 0.26 nmoles · gfwt^−1 · min^−1

O=Cc1ccc(O)cc1 [BA, p-hydroxybenzaldehyde]
CA (p-coumaric acid) content of culture (Vanilla embryo culture; precursor fed at 1 mM): 125 mg/100 g dry wt. | HBA (p-hydroxybenzyl alcohol) content of culture (Vanilla embryo culture; precursor fed at 1 mM): 10305 mg/100 g dry wt. | PRO-ALD (3,4-dihydroxybenzaldehyde) content of culture (Vanilla embryo culture; precursor fed at 1 mM): 5.8 mg/100 g dry wt. | VN (vanillin) content of culture (Vanilla embryo culture; precursor fed at 1 mM): 0.015 mg/100 g dry wt. | VN ALC (vanillyl alcohol) content of culture (Vanilla embryo culture; precursor fed at 1 mM): 12.3 mg/100 g dry wt. | Activity with the compound as substrate, NADH [1]: 0.32 nmoles · gfwt^−1 · min^−1 | Activity with the compound as substrate, NADPH [1]: 0.14 nmoles · gfwt^−1 · min^−1

O=Cc1ccccc1 [Benzaldehyde]
Activity with the compound as substrate, NADH [1]: 0.33 nmoles · gfwt^−1 · min^−1 | Activity with the compound as substrate, NADPH [1]: 0.18 nmoles · gfwt^−1 · min^−1

O=C(O)/C=C/c1ccc(O)cc1 [CA, p-coumaric acid]
specificity of the tested enzyme towards substrate [2]: very high specificity | Result: conversion of the compound as substrate to the expected chain-shortened product [2]: positive | CA (p-coumaric acid) content of culture (Vanilla embryo culture; precursor fed at 1 mM): 220 mg/100 g dry wt. | HBA (p-hydroxybenzyl alcohol) content of culture (Vanilla embryo culture; precursor fed at 1 mM): 13000 mg/100 g dry wt. | PRO-ALD (3,4-dihydroxybenzaldehyde) content of culture (Vanilla embryo culture; precursor fed at 1 mM): 10 mg/100 g dry wt. | VN (vanillin) content of culture (Vanilla embryo culture; precursor fed at 1 mM): 0.01 mg/100 g dry wt. | VN ALC (vanillyl alcohol) content of culture (Vanilla embryo culture; precursor fed at 1 mM): 10 mg/100 g dry wt.

O=C(O)/C=C/c1ccc(O)c(O)c1 [CAF, caffeic acid]
Result: conversion of the compound as substrate to the expected chain-shortened product [2]: negative | CA (p-coumaric acid) content of culture (Vanilla embryo culture; precursor fed at 2 mM): 189 mg/100 g dry wt. | HBA (p-hydroxybenzyl alcohol) content of culture (Vanilla embryo culture; precursor fed at 2 mM): 11350 mg/100 g dry wt. | PRO-ALD (3,4-dihydroxybenzaldehyde) content of culture (Vanilla embryo culture; precursor fed at 2 mM): 21 mg/100 g dry wt. | VN (vanillin) content of culture (Vanilla embryo culture; precursor fed at 2 mM): 0.5 mg/100 g dry wt. | VN ALC (vanillyl alcohol) content of culture (Vanilla embryo culture; precursor fed at 2 mM): 32 mg/100 g dry wt.

O=CC=Cc1ccccc1 [Cinnamylaldehyde]
Activity with the compound as substrate, NADH [1]: 0.00 nmoles · gfwt^−1 · min^−1

COc1cc(/C=C/C(=O)O)ccc1O [FA, ferulic acid]
Result: conversion of the compound as substrate to the expected chain-shortened product [2]: negative | CA (p-coumaric acid) content of culture (Vanilla embryo culture; precursor fed at 25 mM): 136 mg/100 g dry wt. | HBA (p-hydroxybenzyl alcohol) content of culture (Vanilla embryo culture; precursor fed at 25 mM): 11007 mg/100 g dry wt. | PRO-ALD (3,4-dihydroxybenzaldehyde) content of culture (Vanilla embryo culture; precursor fed at 25 mM): 4.8 mg/100 g dry wt. | VN (vanillin) content of culture (Vanilla embryo culture; precursor fed at 25 mM): 11.8 mg/100 g dry wt. | VN ALC (vanillyl alcohol) content of culture (Vanilla embryo culture; precursor fed at 25 mM): 23.8 mg/100 g dry wt.

OCc1ccc(O)cc1 [HBA, p-hydroxybenzyl alcohol]
CA (p-coumaric acid) content of culture (Vanilla embryo culture; precursor fed at 1 mM): 158 mg/100 g dry wt. | HBA (p-hydroxybenzyl alcohol) content of culture (Vanilla embryo culture; precursor fed at 1 mM): 13100 mg/100 g dry wt. | PRO-ALD (3,4-dihydroxybenzaldehyde) content of culture (Vanilla embryo culture; precursor fed at 1 mM): 4.6 mg/100 g dry wt. | VN (vanillin) content of culture (Vanilla embryo culture; precursor fed at 1 mM): 0.001 mg/100 g dry wt. | VN ALC (vanillyl alcohol) content of culture (Vanilla embryo culture; precursor fed at 1 mM): 9.6 mg/100 g dry wt. | fate of HBA in tissue homogenates (Vanilla embryo culture; tissue homogenates): rapidly metabolized to dihydroxybenzyl aldehyde

O=C(O)CC(O)C(=O)O (centres unmarked) [Malic Acid, malic acid]
BA content of culture [3, 4]: 0.02% of Dry Weight | HBA content of culture [3, 4]: 3.60% of Dry Weight | HMBA (vanillyl alcohol) content of culture [3, 4]: 0.700% of Dry Weight | HY content of culture [3, 4]: 0.050% of Dry Weight | PC content of culture [3, 4]: 0.20% of Dry Weight | PROALD content of culture [3, 4]: 0.025% of Dry Weight | VN (vanillin) content of culture [3, 4]: 0.072% of Dry Weight | stimulation of vanillin production relative to standard conditions ([3]; 3% malic acid by weight, 7 days, embryo cultures): more than tenfold | vanillin yield ([3]; 3% malic acid, embryo cultures, increase from 5): 72 mg/100 g tissue | effect on production/accumulation of vanillin and vanillyl alcohol ([3]; malic acid 0.1 to 3% as disodium salt, 1 to 15 days): induced the production/accumulation of vanillin and vanillyl alcohol

COc1cc(CO)ccc1O [VN. ALC., vanillyl alcohol]
CA (p-coumaric acid) content of culture (Vanilla embryo culture; precursor fed at 2 mM): 206 mg/100 g dry wt. | HBA (p-hydroxybenzyl alcohol) content of culture (Vanilla embryo culture; precursor fed at 2 mM): 10350 mg/100 g dry wt. | PRO-ALD (3,4-dihydroxybenzaldehyde) content of culture (Vanilla embryo culture; precursor fed at 2 mM): 1.1 mg/100 g dry wt. | VN (vanillin) content of culture (Vanilla embryo culture; precursor fed at 2 mM): 8.5 mg/100 g dry wt. | VN ALC (vanillyl alcohol) content of culture (Vanilla embryo culture; precursor fed at 2 mM): 882 mg/100 g dry wt.

COc1cc(/C=C/C=O)ccc1O [coniferyl aldehyde, 4-HO-3-metoxycinnamyl aldehyde]
Result: conversion of the compound as substrate to the expected chain-shortened product [2]: negative | Activity with the compound as substrate, NADH [1]: 0.00 nmoles · gfwt^−1 · min^−1

O=C(O)/C=C/c1ccccc1 [t-cinnamic acid]
Result: conversion of the compound as substrate to the expected chain-shortened product [2]: negative
